In the oligonucleotide strings, read from the 5' end, every base follows the letter of its sugar. An asterisk marks phosphorothioate; unmarked linkages are phosphodiester. Other units and linkages are bracketed, terminal groups are in braces. A string of capitals states the bases alone. e = 2'-O-(2-methoxyethyl) (MOE); [5mC] = 5-methylcytosine; d = 2'-deoxy (DNA)
Test system: human Factor 7 mRNA
Assay: Inhibition of human Factor 7 mRNA by 2-10-2 MOE shortmers in HepB3 cells, electroporation, 1,000 nM
Assay type: cell-based
Conditions: electroporation, 1,000 nM oligonucleotide, approximately 24 hours, relative to untreated control cells
How it was run: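 14-mer 2-10-2 2′-MOE gapmers, full phosphorothioate, 5-methylcytidines, electroporated at 1,000 nM into HepB3 cells (20,000/well). After ~24 h, mRNA quantified by real-time RT-PCR, normalized to RIBOGREEN total RNA; percent inhibition relative to untreated cells.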

Substance	% inhibition of human Factor 7 mRNA [%]
435499 (antisense e[5mC]*eT*dG*dG*dG*dA*dG*dA*d[5mC]*d[5mC]*d[5mC]*dT*eG*eG) [compound 435499]	59
435817 (antisense e[5mC]*eT*dG*dA*dG*d[5mC]*dT*dT*dG*dG*d[5mC]*dA*e[5mC]*e[5mC]) [compound 435817]	39
435642 (antisense eA*e[5mC]*dA*d[5mC]*dT*dG*dG*dT*d[5mC]*d[5mC]*d[5mC]*d[5mC]*eA*eT) [compound 435642]	60
435791 (antisense eA*eT*dG*dA*dG*dA*dA*dA*dT*dG*d[5mC]*dT*eT*eT) [compound 435791]	0
435656 (antisense eA*e[5mC]*dT*dG*d[5mC]*dT*d[5mC]*dA*d[5mC]*dA*dG*d[5mC]*e[5mC]*eG) [compound 435656]	58
435695 (antisense eG*eA*d[5mC]*dT*dG*d[5mC]*dT*dG*d[5mC]*dA*dG*dG*e[5mC]*eA) [compound 435695]	48
435747 (antisense eA*eT*dA*dT*d[5mC]*dA*dT*dT*dG*dA*d[5mC]*dA*eA*eG) [compound 435747]	0
435844 (antisense eT*eG*dG*d[5mC]*d[5mC]*dA*dG*dT*dG*dG*d[5mC]*d[5mC]*eT*e[5mC]) [compound 435844]	30
435721 (antisense eT*eA*dA*dG*dG*dA*dG*dG*d[5mC]*dT*d[5mC]*dA*eG*e[5mC]) [compound 435721]	12
435731 (antisense eG*eT*dG*dA*dG*dA*dG*d[5mC]*dT*dA*dA*dA*e[5mC]*eA) [compound 435731]	11
435494 (antisense eA*eG*dA*d[5mC]*d[5mC]*d[5mC]*dT*dG*dG*dT*dG*dT*eA*e[5mC]) [compound 435494]	47
435750 (antisense e[5mC]*eA*d[5mC]*dT*dG*d[5mC]*dA*dG*d[5mC]*d[5mC]*dA*dG*eG*eG) [compound 435750]	14
435714 (antisense eA*e[5mC]*dT*d[5mC]*dG*dA*dT*dG*dT*dA*d[5mC]*dT*eG*eG) [compound 435714]	3
435772 (antisense eG*e[5mC]*dA*dG*dT*d[5mC]*d[5mC]*d[5mC]*dT*dG*d[5mC]*dT*e[5mC]*eA) [compound 435772]	42
435793 (antisense eT*eG*d[5mC]*dA*dG*dT*dA*dG*d[5mC]*dA*dG*dA*eT*eG) [compound 435793]	27
435725 (antisense eG*e[5mC]*dA*dG*d[5mC]*d[5mC]*dT*dG*dA*dG*dG*d[5mC]*e[5mC]*eA) [compound 435725]	79
435677 (antisense eG*eT*dG*d[5mC]*dT*d[5mC]*dG*d[5mC]*d[5mC]*d[5mC]*dA*dG*e[5mC]*eA) [compound 435677]	60
435662 (antisense eT*eG*dG*dA*dT*dA*dT*dT*d[5mC]*dA*dA*d[5mC]*eT*eG) [compound 435662]	19
435698 (antisense e[5mC]*e[5mC]*dT*dT*dG*d[5mC]*dA*dG*dG*dA*dG*dT*e[5mC]*e[5mC]) [compound 435698]	61
435774 (antisense eG*eT*d[5mC]*d[5mC]*d[5mC]*dA*dG*dG*dG*dA*dA*dG*eG*e[5mC]) [compound 435774]	17
435719 (antisense e[5mC]*eA*dG*d[5mC]*d[5mC]*dT*dT*dG*dG*d[5mC]*dT*dT*eT*e[5mC]) [compound 435719]	50
435851 (antisense eA*e[5mC]*dA*dG*dG*d[5mC]*d[5mC]*dA*dG*dG*d[5mC]*dT*eG*eG) [compound 435851]	0
435673 (antisense eA*eG*dA*d[5mC]*d[5mC]*dA*d[5mC]*d[5mC]*d[5mC]*dA*dG*dA*eT*eG) [compound 435673]	34
435767 (antisense e[5mC]*eA*d[5mC]*d[5mC]*dA*dA*dG*dT*dT*dT*dA*dT*eG*eG) [compound 435767]	0
435758 (antisense e[5mC]*e[5mC]*d[5mC]*dT*dG*dA*dG*d[5mC]*dT*dG*dG*dG*e[5mC]*eA) [compound 435758]	4
435829 (antisense eG*eG*dG*dT*dA*dG*dA*d[5mC]*d[5mC]*d[5mC]*dT*d[5mC]*eA*eG) [compound 435829]	18
435808 (antisense e[5mC]*eT*d[5mC]*dT*dG*dG*dA*d[5mC]*dA*d[5mC]*d[5mC]*dG*eG*eG) [compound 435808]	66
435784 (antisense e[5mC]*e[5mC]*dT*dA*dA*dG*dT*dG*dT*dG*d[5mC]*dT*eT*eT) [compound 435784]	17

Substance	% inhibition of human Factor 7 mRNA [%]
435765 (antisense e[5mC]*eA*dA*dA*dG*dT*dT*d[5mC]*dT*d[5mC]*dT*dG*e[5mC]*e[5mC]) [compound 435765]	1
435818 (antisense eG*eT*d[5mC]*dA*dT*d[5mC]*d[5mC]*dT*dT*dG*dT*d[5mC]*eT*eG) [compound 435818]	43
435834 (antisense eT*eG*dA*d[5mC]*dA*dG*d[5mC]*dA*d[5mC]*dG*dA*dA*eG*e[5mC]) [compound 435834]	20
435803 (antisense eG*eA*dG*dA*dA*dT*dT*dG*d[5mC]*d[5mC]*d[5mC]*dA*eG*eG) [compound 435803]	0
435764 (antisense eT*eG*dA*dG*dA*dG*d[5mC]*dT*dG*d[5mC]*dA*d[5mC]*e[5mC]*eT) [compound 435764]	8
435814 (antisense eT*eG*dA*d[5mC]*dG*dA*dG*dA*dG*dG*dA*d[5mC]*e[5mC]*eA) [compound 435814]	31
435638 (antisense eA*eG*d[5mC]*d[5mC]*d[5mC]*dT*dG*dA*dA*dG*d[5mC]*d[5mC]*e[5mC]*eA) [compound 435638]	55
435487 (antisense eA*eG*dT*d[5mC]*d[5mC]*dT*dG*dG*dG*dT*d[5mC]*dA*eT*e[5mC]) [compound 435487]	36
435663 (antisense e[5mC]*e[5mC]*dA*d[5mC]*dA*dT*dG*dG*dA*dT*dA*dT*eT*e[5mC]) [compound 435663]	50
435759 (antisense eG*eA*dG*d[5mC]*d[5mC]*dA*d[5mC]*dA*dG*dA*dG*d[5mC]*e[5mC]*eT) [compound 435759]	11
435770 (antisense e[5mC]*eT*d[5mC]*dT*dG*dA*dG*dA*dG*dG*d[5mC]*d[5mC]*e[5mC]*e[5mC]) [compound 435770]	81
435644 (antisense eT*eG*dG*dT*d[5mC]*d[5mC]*dT*dT*dG*d[5mC]*dA*dG*eG*eA) [compound 435644]	30
435495 (antisense eG*eA*dG*dA*d[5mC]*d[5mC]*d[5mC]*dT*dG*dG*dT*dG*eT*eA) [compound 435495]	27
435479 (antisense e[5mC]*eA*d[5mC]*dT*d[5mC]*d[5mC]*d[5mC]*d[5mC]*dT*dT*dT*dG*eG*eG) [compound 435479]	9
435743 (antisense eG*e[5mC]*d[5mC]*dT*d[5mC]*dA*dA*dA*d[5mC]*dA*dT*d[5mC]*eT*eA) [compound 435743]	40
435790 (antisense eA*eT*dG*dA*d[5mC]*d[5mC]*dA*dT*d[5mC]*d[5mC]*dT*d[5mC]*eA*eA) [compound 435790]	1
435485 (antisense eT*e[5mC]*d[5mC]*dT*dG*dG*dG*dT*d[5mC]*dA*dT*d[5mC]*eA*eG) [compound 435485]	34
435753 (antisense eA*eA*dG*dA*dG*dT*dG*d[5mC]*dA*dG*d[5mC]*dT*eT*eG) [compound 435753]	9
435727 (antisense eT*eG*dG*dA*dG*dT*d[5mC]*dA*dG*d[5mC]*dA*dT*e[5mC]*eG) [compound 435727]	73
435740 (antisense eT*e[5mC]*dA*dT*dT*dT*d[5mC]*dA*dG*dT*dG*dA*eT*eG) [compound 435740]	0
435664 (antisense eT*eT*dT*dT*dT*d[5mC]*d[5mC]*dA*d[5mC]*dA*dT*dG*eG*eA) [compound 435664]	4
435720 (antisense eA*eG*dG*d[5mC]*dT*d[5mC]*dA*dG*d[5mC]*dT*dG*dG*eG*e[5mC]) [compound 435720]	16
435810 (antisense e[5mC]*eT*dG*dA*dG*dG*dG*dA*dA*dT*dG*dT*eT*eG) [compound 435810]	1
435840 (antisense eG*eG*dG*d[5mC]*d[5mC]*d[5mC]*dG*d[5mC]*d[5mC]*dA*d[5mC]*dT*eG*eG) [compound 435840]	0
435745 (antisense eG*eG*dG*dA*dG*d[5mC]*dT*dA*d[5mC]*dA*dG*d[5mC]*e[5mC]*eT) [compound 435745]	0
435647 (antisense eA*eG*dA*dT*dA*dT*dA*dG*dG*dA*d[5mC]*dT*eG*eG) [compound 435647]	0
435645 (antisense eG*eG*dA*dG*d[5mC]*dT*dG*dG*dT*d[5mC]*d[5mC]*dT*eT*eG) [compound 435645]	44

From US20120214862A1, “MODULATION OF FACTOR 7 EXPRESSION” (ISIS Pharmaceuticals, Inc., priority 2009, published 2012)
